Measurements published in US20150105252A1, “SUBSTITUTED PYRAZOLES AS HERBICIDES” (E I DU PONT DE NEMOURS AND COMPANY, priority 2013, published 2015).

Columns and labels:
wheat [1] = assay: Test A preemergence; format: in vivo, Triticum aestivum; conditions: preemergence, 125 g ai/ha, visual injury approx. 10 days after treatment
Method in brief: (§1)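 Pre- and postemergence greenhouse test; loam+sand; cpd in non-phytotox. solvent/surfactant; post at 1–2 leaf, 2–10 cm; visual score ~10 d, 0 = none, 100 = complete control.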

sedge, umbrella = assay: Test B flood; format: in vivo, Cyperus difformis; conditions: 250 g ai/ha, visual rating on 0 to 100 scale (0 no effect, 100 complete control), 13 to 15 days
Method in brief: (§2)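 Each compound is applied to the floodwater of pots holding 2-leaf seedlings, water standing 3 cm over the soil throughout. Plants stay in a greenhouse 13 to 15 days before visual scoring against controls from 0 (no effect) to 100 (complete control).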

rice = assay: Test B flood; format: in vivo, Oryza sativa; conditions: 250 g ai/ha, visual rating on 0 to 100 scale (0 no effect, 100 complete control), 13 to 15 days
Method in brief: as §2

barnyardgrass [2] = assay: Test A postemergence; format: in vivo, Echinochloa crus-galli; conditions: Postemergence
Method in brief: as §1

morningglory [3] = assay: Test A postemergence; format: in vivo, Ipomoea spp.; conditions: Postemergence
Method in brief: as §1

barnyardgrass [4] = assay: Test B flood; format: in vivo, Echinochloa crus-galli; conditions: 250 g ai/ha, visual rating on 0 to 100 scale (0 no effect, 100 complete control), 13 to 15 days
Method in brief: as §2

foxtail, giant [5] = assay: Test A preemergence; format: in vivo, Setaria faberii; conditions: preemergence; for Foxtail, Giant plant response rating (0 to 100 scale): 125 g ai/ha, visual injury approx. 10 days after treatment; for Foxtail, Giant plant response rating: 500 g ai/ha, visual injury after approx. 10 days, 0 to 100 scale (0 no effect, 100 complete control)
Method in brief: as §1

crabgrass, large [6] = assay: Test A preemergence; format: in vivo, Digitaria sanguinalis; conditions: preemergence; for Crabgrass, Large plant response rating (0 to 100 scale): 125 g ai/ha, visual injury approx. 10 days after treatment; for Crabgrass, Large plant response rating: 500 g ai/ha, visual injury after approx. 10 days, 0 to 100 scale (0 no effect, 100 complete control)
Method in brief: as §1

foxtail, giant [7] = assay: Test A postemergence; format: in vivo, Setaria faberii; conditions: Postemergence
Method in brief: as §1

corn [8] = assay: Test A postemergence; format: in vivo, Zea mays; conditions: Postemergence
Method in brief: as §1

pigweed [9] = assay: Test A postemergence; format: in vivo, Amaranthus retroflexus; conditions: Postemergence
Method in brief: as §1

corn [10] = assay: Test A preemergence; format: in vivo, Zea mays; conditions: preemergence; for Corn plant response rating (0 to 100 scale): 125 g ai/ha, visual injury approx. 10 days after treatment; for Corn plant response rating: 500 g ai/ha, visual injury after approx. 10 days, 0 to 100 scale (0 no effect, 100 complete control)
Method in brief: as §1

crabgrass, large [11] = assay: Test A postemergence; format: in vivo, Digitaria sanguinalis; conditions: Postemergence
Method in brief: as §1

barnyardgrass [12] = assay: Test A preemergence; format: in vivo, Echinochloa crus-galli; conditions: preemergence; for Barnyardgrass plant response rating (0 to 100 scale, 0 is no effect, 100 is complete control): 125 g ai/ha, visual injury approx. 10 days after treatment; for Barnyardgrass plant response rating: 500 g ai/ha, visual injury after approx. 10 days, 0 to 100 scale (0 no effect, 100 complete control)
Method in brief: as §1

wheat [13] = assay: Test A postemergence; format: in vivo, Triticum aestivum; conditions: Postemergence
Method in brief: as §1

morningglory [14] = assay: Test A preemergence; format: in vivo, Ipomoea spp.; conditions: preemergence, 125 g ai/ha, visual injury approx. 10 days after treatment
Method in brief: as §1

pigweed [15] = assay: Test A preemergence; format: in vivo, Amaranthus retroflexus; conditions: preemergence, 125 g ai/ha, visual injury approx. 10 days after treatment
Method in brief: as §1

velvetleaf [16] = assay: Test A postemergence; format: in vivo, Abutilon theophrasti; conditions: Postemergence
Method in brief: as §1

velvetleaf [17] = assay: Test A preemergence; format: in vivo, Abutilon theophrasti; conditions: preemergence, 125 g ai/ha, visual injury approx. 10 days after treatment
Method in brief: as §1

ducksalad = assay: Test B flood; format: in vivo, Heteranthera limosa; conditions: 250 g ai/ha, visual rating on 0 to 100 scale (0 no effect, 100 complete control), 13 to 15 days
Method in brief: as §2

[18] = 125 g ai/ha, 0 to 100 scale, 0 no effect, 100 complete control
[19] = 500 g ai/ha, 0 to 100 scale (0 no effect, 100 complete control)

SMILES: CCc1cc(C(=O)NC2CC2)nn1Oc1cccc(OC(F)(F)F)c1 [Compound 222]
- Wheat plant response rating (0 to 100 scale) (wheat [1]): 0
- Plant response rating, Sedge, Umbrella (sedge, umbrella): 65
- Plant response rating, Rice (rice): 15
- Barnyardgrass plant response rating (barnyardgrass [2]; [18]): 80
- Barnyardgrass plant response rating (barnyardgrass [2]; [19]): 80
- Morningglory plant response rating (morningglory [3]; [18]): 30
- Morningglory plant response rating (morningglory [3]; [19]): 50
- Plant response rating, Barnyardgrass (barnyardgrass [4]): 0
- Foxtail, Giant plant response rating (0 to 100 scale) (foxtail, giant [5]): 0
- Foxtail, Giant plant response rating (foxtail, giant [5]): 80
- Crabgrass, Large plant response rating (0 to 100 scale) (crabgrass, large [6]): 80
- Crabgrass, Large plant response rating (crabgrass, large [6]): 100
- Foxtail, Giant plant response rating (foxtail, giant [7]; [18]): 20
- Foxtail, Giant plant response rating (foxtail, giant [7]; [19]): 70
- Corn plant response rating (corn [8]; [18]): 0
- Corn plant response rating (corn [8]; [19]): 60
- Pigweed plant response rating (pigweed [9]; [18]): 30
- Pigweed plant response rating (pigweed [9]; [19]): 100
- Corn plant response rating (0 to 100 scale) (corn [10]): 0
- Corn plant response rating (corn [10]): 0
- Crabgrass, Large plant response rating (crabgrass, large [11]; [18]): 40
- Crabgrass, Large plant response rating (crabgrass, large [11]; [19]): 90
- Barnyardgrass plant response rating (0 to 100 scale, 0 is no effect, 100 is complete control) (barnyardgrass [12]): 0
- Barnyardgrass plant response rating (barnyardgrass [12]): 90
- Wheat plant response rating (wheat [13]; [18]): 0
- Wheat plant response rating (wheat [13]; [19]): 20
- Morningglory plant response rating (0 to 100 scale) (morningglory [14]): 0
- Pigweed plant response rating (0 to 100 scale) (pigweed [15]): 20
- Velvetleaf plant response rating (velvetleaf [16]; [18]): 30
- Velvetleaf plant response rating (velvetleaf [16]; [19]): 50
- Velvetleaf plant response rating (0 to 100 scale) (velvetleaf [17]): 0
- Plant response rating, Ducksalad (ducksalad): 55

SMILES: CCNC(=O)c1cc(CC)n(Oc2cccc(OC(F)(F)F)c2)n1 [Compound 223]
- Wheat plant response rating (0 to 100 scale) (wheat [1]): 0
- Plant response rating, Sedge, Umbrella (sedge, umbrella): 65
- Plant response rating, Rice (rice): 25
- Barnyardgrass plant response rating (barnyardgrass [2]; [18]): 0
- Barnyardgrass plant response rating (barnyardgrass [2]; [19]): 50
- Morningglory plant response rating (morningglory [3]; [18]): 0
- Morningglory plant response rating (morningglory [3]; [19]): 30
- Plant response rating, Barnyardgrass (barnyardgrass [4]): 0
- Foxtail, Giant plant response rating (0 to 100 scale) (foxtail, giant [5]): 0
- Foxtail, Giant plant response rating (foxtail, giant [5]): 20
- Crabgrass, Large plant response rating (0 to 100 scale) (crabgrass, large [6]): 20
- Crabgrass, Large plant response rating (crabgrass, large [6]): 90
- Foxtail, Giant plant response rating (foxtail, giant [7]; [18]): 0
- Foxtail, Giant plant response rating (foxtail, giant [7]; [19]): 30
- Corn plant response rating (corn [8]; [18]): 0
- Corn plant response rating (corn [8]; [19]): 30
- Pigweed plant response rating (pigweed [9]; [18]): 20
- Pigweed plant response rating (pigweed [9]; [19]): 60
- Corn plant response rating (0 to 100 scale) (corn [10]): 0
- Corn plant response rating (corn [10]): 0
- Crabgrass, Large plant response rating (crabgrass, large [11]; [18]): 20
- Crabgrass, Large plant response rating (crabgrass, large [11]; [19]): 70
- Barnyardgrass plant response rating (0 to 100 scale, 0 is no effect, 100 is complete control) (barnyardgrass [12]): 0
- Barnyardgrass plant response rating (barnyardgrass [12]): 40
- Wheat plant response rating (wheat [13]; [18]): 0
- Wheat plant response rating (wheat [13]; [19]): 10
- Morningglory plant response rating (0 to 100 scale) (morningglory [14]): 0
- Pigweed plant response rating (0 to 100 scale) (pigweed [15]): 0
- Velvetleaf plant response rating (velvetleaf [16]; [18]): 0
- Velvetleaf plant response rating (velvetleaf [16]; [19]): 30
- Velvetleaf plant response rating (0 to 100 scale) (velvetleaf [17]): 0
- Plant response rating, Ducksalad (ducksalad): 25

SMILES: CCCNC(=O)c1cc(COC)n(Cc2cc(C(F)(F)C(F)(F)F)nn2C)n1 [Compound 228]
- Wheat plant response rating (0 to 100 scale) (wheat [1]): 0
- Plant response rating, Sedge, Umbrella (sedge, umbrella): 30
- Plant response rating, Rice (rice): 0
- Barnyardgrass plant response rating (barnyardgrass [2]; [18]): 0
- Barnyardgrass plant response rating (barnyardgrass [2]; [19]): 50
- Morningglory plant response rating (morningglory [3]; [18]): 50
- Morningglory plant response rating (morningglory [3]; [19]): 100
- Plant response rating, Barnyardgrass (barnyardgrass [4]): 0
- Foxtail, Giant plant response rating (0 to 100 scale) (foxtail, giant [5]): 30
- Foxtail, Giant plant response rating (foxtail, giant [5]): 80
- Crabgrass, Large plant response rating (0 to 100 scale) (crabgrass, large [6]): 90
- Crabgrass, Large plant response rating (crabgrass, large [6]): 100
- Foxtail, Giant plant response rating (foxtail, giant [7]; [18]): 10
- Foxtail, Giant plant response rating (foxtail, giant [7]; [19]): 60
- Corn plant response rating (corn [8]; [18]): 10
- Corn plant response rating (corn [8]; [19]): 50
- Pigweed plant response rating (pigweed [9]; [18]): 30
- Pigweed plant response rating (pigweed [9]; [19]): 80
- Corn plant response rating (0 to 100 scale) (corn [10]): 0
- Corn plant response rating (corn [10]): 30
- Crabgrass, Large plant response rating (crabgrass, large [11]; [18]): 20
- Crabgrass, Large plant response rating (crabgrass, large [11]; [19]): 60
- Barnyardgrass plant response rating (0 to 100 scale, 0 is no effect, 100 is complete control) (barnyardgrass [12]): 10
- Barnyardgrass plant response rating (barnyardgrass [12]): 90
- Wheat plant response rating (wheat [13]; [18]): 0
- Wheat plant response rating (wheat [13]; [19]): 10
- Morningglory plant response rating (0 to 100 scale) (morningglory [14]): 30
- Pigweed plant response rating (0 to 100 scale) (pigweed [15]): 90
- Velvetleaf plant response rating (velvetleaf [16]; [18]): 10
- Velvetleaf plant response rating (velvetleaf [16]; [19]): 30
- Velvetleaf plant response rating (0 to 100 scale) (velvetleaf [17]): 0
- Plant response rating, Ducksalad (ducksalad): 30
